Columns and labels:
johnsongrass [1] = assay: Test C postemergence; assay type: in vivo, Sorghum halepense; conditions: for Plant response rating (scale of 0 to 100 where 0 is no effect and 100 is complete control), Johnsongrass: Postemergence, 31 g ai/ha, visually evaluated after 13 to 15 days; for Johnsongrass plant response rating / Plant response rating, Johnsongrass: postemergence; for Johnsongrass plant response rating: 62 g ai/ha, scale 0 to 100
How it was run: (§1)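 Greenhouse pot test: preemergence application onto freshly seeded loam/sand mix, postemergence application onto seedlings (1–4 leaves, 2–18 cm) in peat-vermiculite substrate. Responses scored visually 13 to 15 days later relative to controls, where 0 means no effect and 100 means complete control; a dash indicates no result.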

pigweed [2] = assay: Test A preemergence; assay type: in vivo, Amaranthus retroflexus; conditions: preemergence
How it was run: (§2)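 Scoring was visual, on a scale where 100 means complete control and 0 means no effect, comparing treated with untreated plants around 10 days post-application. Compounds in surfactant-containing non-phytotoxic solvent were sprayed onto soil preemergence or onto one- to two-leaf seedlings (2–10 cm) postemergence.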

barnyardgrass = assay: Test A preemergence; assay type: in vivo, Echinochloa crus-galli; conditions: preemergence
How it was run: as §2

oilseed rape = assay: Test C preemergence; assay type: in vivo, Brassica napus; conditions: for Oilseed Rape plant response rating / Plant response rating, Oilseed Rape: preemergence; for Plant response rating, Oilseed Rape: 125 g ai/ha, scale 0 to 100, 0 = no effect, 100 = complete control
How it was run: as §1

wheat = assay: Test C preemergence; assay type: in vivo, Triticum aestivum; conditions: for Wheat plant response rating / Plant response rating, Wheat: preemergence; for Plant response rating, Wheat: 125 g ai/ha, scale 0 to 100, 0 = no effect, 100 = complete control
How it was run: as §1

waterhemp = assay: Test C postemergence; assay type: in vivo, Amaranthus rudis; conditions: for Waterhemp plant response rating / Plant response rating, Waterhemp: postemergence; for Waterhemp plant response rating: scale 0 to 100
How it was run: as §1

foxtail, giant = assay: Test C preemergence; assay type: in vivo, Setaria faberii; conditions: for Foxtail, Giant plant response rating / Plant response rating, Foxtail, Giant: preemergence; for Plant response rating, Foxtail, Giant: 125 g ai/ha, scale 0 to 100, 0 = no effect, 100 = complete control
How it was run: as §1

ragweed = assay: Test C preemergence; assay type: in vivo, Ambrosia elation; conditions: for Ragweed plant response rating / Plant response rating, Ragweed: preemergence; for Plant response rating, Ragweed: 125 g ai/ha, scale 0 to 100, 0 = no effect, 100 = complete control
How it was run: as §1

blackgrass = assay: Test C preemergence; assay type: in vivo, Alopecurus myosuroides; conditions: for Blackgrass plant response rating / Plant response rating, Blackgrass: preemergence; for Plant response rating, Blackgrass: 125 g ai/ha, scale 0 to 100, 0 = no effect, 100 = complete control
How it was run: as §1

lambsquarters = assay: Test C postemergence; assay type: in vivo, Chenopodium album; conditions: for Plant response rating (scale of 0 to 100 where 0 is no effect and 100 is complete control), Lambsquarters: Postemergence, 31 g ai/ha, visually evaluated after 13 to 15 days; for Lambsquarters plant response rating / Plant response rating, Lambsquarters: postemergence; for Lambsquarters plant response rating: 62 g ai/ha, scale 0 to 100
How it was run: as §1

johnsongrass [3] = assay: Test C preemergence; assay type: in vivo, Sorghum halepense; conditions: for Johnsongrass plant response rating / Plant response rating, Johnsongrass: preemergence; for Plant response rating, Johnsongrass: 125 g ai/ha, scale 0 to 100, 0 = no effect, 100 = complete control
How it was run: as §1

pigweed [4] = assay: Test A postemergence; assay type: in vivo, Amaranthus retroflexus
How it was run: as §2

soybean = assay: Test C preemergence; assay type: in vivo, Glycine max; conditions: for Soybean plant response rating / Plant response rating, Soybean: preemergence; for Plant response rating, Soybean: 125 g ai/ha, scale 0 to 100, 0 = no effect, 100 = complete control
How it was run: as §1

corn = assay: Test C postemergence; assay type: in vivo, Zea mays; conditions: for Plant response rating (scale of 0 to 100 where 0 is no effect and 100 is complete control), Corn: Postemergence, 31 g ai/ha, visually evaluated after 13 to 15 days; for Corn plant response rating / Plant response rating, Corn: postemergence; for Corn plant response rating: 62 g ai/ha, scale 0 to 100
How it was run: as §1

[5] = 250 g ai/ha, scale 0 to 100 (0 no effect, 100 complete control)
[6] = 125 g ai/ha, scale 0 to 100, 0 no effect, 100 complete control
[7] = 125 g ai/ha, visual injury, 0 to 100 scale, approx. 10 days
[8] = 500 g ai/ha, visual injury after approx. 10 days, 0 to 100 scale (0 no effect, 100 complete control)
[9] = 31 g ai/ha, visual rating, scale 0 to 100 (0 no effect, 100 complete control), 13 to 15 days
[10] = 62 g ai/ha, scale 0 to 100 (0 no effect, 100 complete control), 13 to 15 days
[11] = Postemergence, 500 g ai/ha, 0 to 100 scale (0 no effect, 100 complete control)
[12] = 125 g ai/ha, visual injury approx. 10 days after treatment
[13] = 250 g ai/ha, scale 0 to 100, 0 is no effect, 100 is complete control

CCOc1cc(C(=O)NCC(F)(F)F)nn1Cc1ccnc(OC(F)F)c1 [Compound 128]
Plant response rating (scale of 0 to 100 where 0 is no effect and 100 is complete control), Johnsongrass (johnsongrass [1]): 5 | Johnsongrass plant response rating (johnsongrass [1]): 5 | Plant response rating, Johnsongrass (johnsongrass [1]; [5]): 10 | Plant response rating, Johnsongrass (johnsongrass [1]; [6]): 5 | Pigweed plant response rating (pigweed [2]; [7]): 100 | Pigweed plant response rating (pigweed [2]; [8]): 100 | Barnyardgrass plant response rating (barnyardgrass; [7]): 100 | Barnyardgrass plant response rating (barnyardgrass; [8]): 100 | Plant response rating (scale of 0 to 100), Oilseed Rape (oilseed rape; Preemergence, 250 g ai/ha): 100 | Oilseed Rape plant response rating (oilseed rape; [9]): 100 | Oilseed Rape plant response rating (oilseed rape; [10]): 100 | Plant response rating, Oilseed Rape (oilseed rape; 13 to 15 days): 100 | Plant response rating (scale of 0 to 100), Wheat (wheat; Preemergence, 250 g ai/ha): 85 | Wheat plant response rating (wheat; [9]): 20 | Wheat plant response rating (wheat; [10]): 30 | Plant response rating, Wheat (wheat; 13 to 15 days): 70 | Plant response rating (scale of 0 to 100 where 0 is no effect and 100 is complete control), Waterhemp (waterhemp; Postemergence, 31 g ai/ha, visually evaluated after 13 to 15 days): 60 | Waterhemp plant response rating (waterhemp; 62 g ai/ha): 65 | Plant response rating, Waterhemp (waterhemp; [5]): 95 | Plant response rating, Waterhemp (waterhemp; [6]): 70 | Plant response rating (scale of 0 to 100), Foxtail, Giant (foxtail, giant; Preemergence, 250 g ai/ha): 100 | Foxtail, Giant plant response rating (foxtail, giant; [9]): 98 | Foxtail, Giant plant response rating (foxtail, giant; [10]): 100 | Plant response rating, Foxtail, Giant (foxtail, giant; 13 to 15 days): 100 | Plant response rating (scale of 0 to 100), Ragweed (ragweed; Preemergence, 250 g ai/ha): 90 | Ragweed plant response rating (ragweed; [9]): 25 | Ragweed plant response rating (ragweed; [10]): 65 | Plant response rating, Ragweed (ragweed; 13 to 15 days): 85 | Plant response rating (scale of 0 to 100), Blackgrass (blackgrass; Preemergence, 250 g ai/ha): 90 | Blackgrass plant response rating (blackgrass; [9]): 50 | Blackgrass plant response rating (blackgrass; [10]): 90 | Plant response rating, Blackgrass (blackgrass; 13 to 15 days): 90 | Plant response rating (scale of 0 to 100 where 0 is no effect and 100 is complete control), Lambsquarters (lambsquarters): 60 | Lambsquarters plant response rating (lambsquarters): 80 | Plant response rating, Lambsquarters (lambsquarters; [5]): 98 | Plant response rating, Lambsquarters (lambsquarters; [6]): 95 | Plant response rating (scale of 0 to 100), Johnsongrass (johnsongrass [3]; Preemergence, 250 g ai/ha): 98 | Johnsongrass plant response rating (johnsongrass [3]; [9]): 45 | Johnsongrass plant response rating (johnsongrass [3]; [10]): 85 | Plant response rating, Johnsongrass (johnsongrass [3]; 13 to 15 days): 95 | Pigweed plant response rating (pigweed [4]; [11]): 100 | Pigweed plant response rating (pigweed [4]; postemergence, 125 g ai/ha, about 10 days, visual rating on 0 to 100 scale (0 no effect, 100 complete control)): 100 | Plant response rating (scale of 0 to 100), Soybean (soybean; Preemergence, 250 g ai/ha): 90 | Soybean plant response rating (soybean; [9]): 35 | Soybean plant response rating (soybean; [10]): 55 | Plant response rating, Soybean (soybean; 13 to 15 days): 80 | Plant response rating (scale of 0 to 100 where 0 is no effect and 100 is complete control), Corn (corn): 5 | Corn plant response rating (corn): 5 | Plant response rating, Corn (corn; [5]): 30 | Plant response rating, Corn (corn; [6]): 10

CCCc1cc(C(=O)NC2CC2)nn1Cc1ccnc(OC(F)F)c1 [Compound 205]
Plant response rating (scale of 0 to 100 where 0 is no effect and 100 is complete control), Johnsongrass (johnsongrass [1]): 5 | Johnsongrass plant response rating (johnsongrass [1]): 10 | Plant response rating, Johnsongrass (johnsongrass [1]; [5]): 45 | Plant response rating, Johnsongrass (johnsongrass [1]; [6]): 20 | Pigweed plant response rating (0 to 100 scale) (pigweed [2]; [12]): 100 | Barnyardgrass plant response rating (0 to 100 scale, 0 is no effect, 100 is complete control) (barnyardgrass; [12]): 90 | Barnyardgrass plant response rating (barnyardgrass; [8]): 100 | Oilseed Rape plant response rating (oilseed rape; [9]): 100 | Oilseed Rape plant response rating (oilseed rape; [10]): 100 | Plant response rating, Oilseed Rape (oilseed rape; 13 to 15 days): 100 | Oilseed Rape plant response rating (oilseed rape; [13]): 100 | Wheat plant response rating (wheat; [9]): 5 | Wheat plant response rating (wheat; [10]): 15 | Plant response rating, Wheat (wheat; 13 to 15 days): 85 | Wheat plant response rating (wheat; [13]): 95 | Plant response rating, Waterhemp (waterhemp; [5]): 85 | Waterhemp plant response rating (waterhemp): 70 | Foxtail, Giant plant response rating (foxtail, giant; [9]): 100 | Foxtail, Giant plant response rating (foxtail, giant; [10]): 100 | Plant response rating, Foxtail, Giant (foxtail, giant; 13 to 15 days): 100 | Foxtail, Giant plant response rating (foxtail, giant; [13]): 100 | Ragweed plant response rating (ragweed; [9]): 80 | Ragweed plant response rating (ragweed; [10]): 100 | Plant response rating, Ragweed (ragweed; 13 to 15 days): 98 | Ragweed plant response rating (ragweed; [13]): 100 | Blackgrass plant response rating (blackgrass; [9]): 80 | Blackgrass plant response rating (blackgrass; [10]): 95 | Plant response rating, Blackgrass (blackgrass; 13 to 15 days): 95 | Blackgrass plant response rating (blackgrass; [13]): 100 | Plant response rating (scale of 0 to 100 where 0 is no effect and 100 is complete control), Lambsquarters (lambsquarters): 85 | Lambsquarters plant response rating (lambsquarters): 85 | Plant response rating, Lambsquarters (lambsquarters; [5]): 85 | Plant response rating, Lambsquarters (lambsquarters; [6]): 90 | Johnsongrass plant response rating (johnsongrass [3]; [9]): 70 | Johnsongrass plant response rating (johnsongrass [3]; [10]): 80 | Plant response rating, Johnsongrass (johnsongrass [3]; 13 to 15 days): 90 | Johnsongrass plant response rating (johnsongrass [3]; [13]): 100 | Pigweed plant response rating (pigweed [4]; Postemergence, 125 g ai/ha, 0 to 100 scale, 0 no effect, 100 complete control): 100 | Pigweed plant response rating (pigweed [4]; [11]): 100 | Soybean plant response rating (soybean; [9]): 80 | Soybean plant response rating (soybean; [10]): 85 | Plant response rating, Soybean (soybean; 13 to 15 days): 100 | Soybean plant response rating (soybean; [13]): 100 | Plant response rating (scale of 0 to 100 where 0 is no effect and 100 is complete control), Corn (corn): 10 | Corn plant response rating (corn): 10 | Plant response rating, Corn (corn; [5]): 40 | Plant response rating, Corn (corn; [6]): 20

From patent publication US20150105252A1, “SUBSTITUTED PYRAZOLES AS HERBICIDES” (E I DU PONT DE NEMOURS AND COMPANY, priority 2013, published 2015)
